From US20250215029A1 (Recludix Pharma, Inc., priority 2022, published 2025) come the findings set out here.

Read-outs that look alike come from different tables or passages of the source.

One assay addresses T1, pY641-STAT6 in PBMC (Homo sapiens, UniProt P42226).
T1 construct: Cryopreserved Peripheral Blood Mononuclear Cells (PBMC) are from AllCells; host or cells: cryopreserved PBMC
T1 sequence (P42226 1-847): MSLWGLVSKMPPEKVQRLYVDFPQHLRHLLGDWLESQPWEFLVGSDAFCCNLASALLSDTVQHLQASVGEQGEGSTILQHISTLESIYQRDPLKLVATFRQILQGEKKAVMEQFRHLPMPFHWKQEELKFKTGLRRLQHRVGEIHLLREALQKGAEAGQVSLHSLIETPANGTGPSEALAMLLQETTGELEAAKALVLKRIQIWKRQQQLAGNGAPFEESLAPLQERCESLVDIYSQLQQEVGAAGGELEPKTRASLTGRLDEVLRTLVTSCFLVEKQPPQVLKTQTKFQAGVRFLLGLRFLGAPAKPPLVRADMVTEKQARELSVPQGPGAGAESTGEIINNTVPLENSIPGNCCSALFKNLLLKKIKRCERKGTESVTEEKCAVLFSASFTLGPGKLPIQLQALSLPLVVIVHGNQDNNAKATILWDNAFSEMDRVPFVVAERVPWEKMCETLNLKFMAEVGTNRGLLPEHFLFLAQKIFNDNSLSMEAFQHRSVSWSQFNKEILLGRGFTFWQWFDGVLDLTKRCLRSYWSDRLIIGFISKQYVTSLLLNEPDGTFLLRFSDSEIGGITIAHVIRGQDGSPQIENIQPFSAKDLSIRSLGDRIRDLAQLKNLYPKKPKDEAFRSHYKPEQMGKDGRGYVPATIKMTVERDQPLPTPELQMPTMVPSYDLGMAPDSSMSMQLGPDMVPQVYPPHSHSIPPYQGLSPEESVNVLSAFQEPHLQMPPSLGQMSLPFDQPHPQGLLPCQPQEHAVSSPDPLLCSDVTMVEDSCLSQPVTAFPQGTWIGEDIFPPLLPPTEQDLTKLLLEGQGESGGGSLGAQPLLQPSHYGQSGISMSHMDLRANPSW
Put plainly: MSD-pSTAT-PBMC Assay (pSTAT6, IL-4 stimulated). It counts as cell-based. To be noted: compound 3 hrs, then 1 ng/mL IL-4 for 10 min. In short, it runs like this: (§1)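 Thawed human PBMC rested overnight in IMDM/10% FBS, then got compound for 3 hrs before a 10 min cytokine pulse: 1 ng/mL IL-4 for pSTAT6, 10 ng/mL IL-6 for pSTAT3. Lysates went to MSD sandwich capture on total STAT6 or STAT3 with phospho-specific detection. IC50 came from background-subtracted, DMSO-normalized signal.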

The next assay addresses T2, pY705-STAT3 in PBMC (Homo sapiens, UniProt P40763).
T2 construct: Cryopreserved Peripheral Blood Mononuclear Cells (PBMC) are from AllCells; host or cells: cryopreserved PBMC
Kind of assay: MSD-pSTAT-PBMC Assay (pSTAT3, IL-6 stimulated). In kind it is cell-based. To be noted: PBMC, compound 3 hrs, then 10 ng/mL IL-6 for 10 min. In short, it runs like this:
as §1

The mark [1] stands for this setting: PBMC, Table 1114, read-out: pSTAT6.

T2 sequence (P40763 whole entry): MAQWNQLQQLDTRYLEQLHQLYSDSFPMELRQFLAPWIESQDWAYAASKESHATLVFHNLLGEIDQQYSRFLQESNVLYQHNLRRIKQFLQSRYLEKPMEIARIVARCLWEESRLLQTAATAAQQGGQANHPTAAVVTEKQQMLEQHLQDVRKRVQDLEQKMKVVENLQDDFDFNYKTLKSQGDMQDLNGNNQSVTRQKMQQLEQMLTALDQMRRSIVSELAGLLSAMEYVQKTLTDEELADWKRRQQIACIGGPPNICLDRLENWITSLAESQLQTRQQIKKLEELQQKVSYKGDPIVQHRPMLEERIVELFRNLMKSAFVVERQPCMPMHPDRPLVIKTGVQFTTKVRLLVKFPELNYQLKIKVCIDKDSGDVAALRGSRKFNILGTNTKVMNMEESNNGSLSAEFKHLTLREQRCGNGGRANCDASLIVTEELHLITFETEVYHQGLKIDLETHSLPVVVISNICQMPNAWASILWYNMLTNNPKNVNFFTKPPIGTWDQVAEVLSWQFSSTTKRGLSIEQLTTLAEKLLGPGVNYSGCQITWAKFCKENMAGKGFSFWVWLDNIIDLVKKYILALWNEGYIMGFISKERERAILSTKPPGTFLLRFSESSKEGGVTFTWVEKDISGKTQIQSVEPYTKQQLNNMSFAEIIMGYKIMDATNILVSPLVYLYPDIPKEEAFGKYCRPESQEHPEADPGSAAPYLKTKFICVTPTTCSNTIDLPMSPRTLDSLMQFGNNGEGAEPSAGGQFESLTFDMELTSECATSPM

On to `CC(C)CC(=O)SCCOP(=O)(OCOC(=O)OC(C)C)C(F)(F)c1ccc2sc(C(=O)N[C@H]3CCCC[C@H]4CC[C@@H](C(=O)N5C[C@H](c6ccccc6)[C@@H](C#N)C5)N4C3=O)cc2c1` (single isomer, unassigned) [Compound 166, S-(2-((((2-(((3S,6S,10aS)-3-((3R,4S or 3S,4R)-3-cyano-4-phenylpyrrolidine-1-carbonyl)-5-oxodecahydropyrrolo [1,2-a]azocin-6-yl)carbamoyl)benzo[b]thiophen-5-yl)difluoromethyl) (((isopropoxycarbonyl)oxy)methoxy)phosphoryl)oxy)ethyl)-3-methylbutane thioate], for which the IC50 was below 100 nM at pY641-STAT6 in PBMC (setting [1]) and 100 to 1000 nM at pY705-STAT3 in PBMC (Table 1114, read-out: pSTAT3).
In the case of `CC(C)OC(=O)[C@H](C)NP(=O)(Cc1ccc2sc(C(=O)N[C@H]3CCC[C@H]4CC[C@@H](C(=O)N5CC(c6cccnc6)C5)N4C3=O)cc2c1)Oc1ccccc1` (stereo partly drawn) [Compound 195, isopropyl (((2-(((3S,6S,9aS)-5-oxo-3-(3-(pyridin-3-yl)azetidine-1-carbonyl)octa-hydro-1H-pyrrolo[1,2-a]azepin-6-yl)carbamoyl)benzo[b]thiophen-5-yl)methyl) (phenoxy)phosphoryl)-L-alaninate], the IC50 on pY641-STAT6 in PBMC (pSTAT6, PBMC, Table 1114) was above 3000 nM; at pY705-STAT3 in PBMC (Table 1114, read-out: pSTAT3), 100 to 1000 nM.
As to `CC(C)(C)C(=O)OCOP(=O)(OCOC(=O)C(C)(C)C)C(F)(F)c1ccc2sc(C(=O)N[C@H]3CCCC[C@H]4CCC[C@@H](C(=O)N5CC(n6ccnc6)C5)N4C3=O)cc2c1` [Compound 171, ((((2-(((4S,7S,11aS)-4-(3-(1H-imidazol-1-yl)azetidine-1-carbonyl)-6-oxodecahydro-2H-pyrido[1,2-a]azocin-7-yl)carbamoyl)benzo[b]thiophen-5-yl)difluoromethyl)phosphoryl)bis(oxy)) bis(methylene) bis(2,2-dimethylpropanoate)], the IC50 on pY641-STAT6 in PBMC (setting [1]) is above 3000 nM; at pY705-STAT3 in PBMC (Table 1114, read-out: pSTAT3), above 3000 nM.
As to `CCCOC(=O)[C@H](C)NP(=O)(Oc1ccccc1)C(F)c1ccc2sc(C(=O)N[C@H]3CCC[C@H]4CC[C@@H](C(=O)N5CC(c6cccnc6)C5)N4C3=O)cc2c1` (stereo partly drawn) [Compound 415, propyl ((fluoro(2-(((3S,6S,9aS)-5-oxo-3-(3-(pyridin-3-yl)azetidine-1-carbonyl)octahydro-1H-pyrrolo[1,2-a]azepin-6-yl)carbamoyl)benzo [b]thiophen-5-yl)methyl)(phenoxy)phosphoryl)-L-alaninate], the IC50 was 1000 to 3000 nM on pY641-STAT6 in PBMC (STAT6, PBMC, Table 115) and below 100 nM on pY705-STAT3 in PBMC (Table 115, read-out: STAT3).
In the same order, the values of `CCCOC(=O)[C@H](C)NP(=O)(Oc1ccccc1)C(F)c1ccc2sc(C(=O)N[C@H]3CCCC[C@H]4CC[C@@H](C(=O)N5C[C@@H](C#N)[C@H](c6ccccc6)C5)N4C3=O)cc2c1` (single isomer, unassigned) [Compound 315] are below 100 nM and above 3000 nM.
On to `CC(C)(C(=O)SCCOP(=O)(OCCSC(=O)C(C)(C)C(F)(F)F)C(F)(F)c1ccc2sc(C(=O)N[C@H]3CCCC[C@H]4CC[C@@H](C(=O)N5C[C@@H](C#N)[C@H](c6ccccc6)C5)N4C3=O)cc2c1)C(F)(F)F` (single isomer, unassigned) [Compound 159, S,S′-(((((2-(((3S,6S,10aS)-3-((3S,4R or 3R,4S)-3-cyano-4-phenylpyrrolidine-1-carbonyl)-5-oxodecahydro-pyrrolo[1,2-a]azocin-6-yl)carbamoyl)benzo[b]thiophen-5-yl)difluoromethyl)phosphoryl)bis(oxy))bis(ethane-2,1-diyl)) bis(3,3,3-trifluoro-2,2-dimethylpropane-thioate)], for which the IC50 on pY641-STAT6 in PBMC (setting [1]) was above 3000 nM; on pY705-STAT3 in PBMC (Table 1114, read-out: pSTAT3), above 3000 nM.
Consider `CCCC(=O)SCCOP(=O)(Cc1ccc2sc(C(=O)N[C@H]3CCCC[C@H]4CC[C@@H](C(=O)N5CC(C#N)C(c6ccccc6)C5)N4C3=O)cc2c1)OCCSC(=O)CCC` (single isomer, unassigned) [Compound 125, S,S′-(((((2-(((3S,6S,10aS)-3-((3S,4R or 3R,4S)-3-cyano-4-phenylpyrrolidine-1-carbonyl)-5-oxodecahydropyrrolo[1,2-a]azocin-6-yl)carbamoyl)benzo[b]thiophen-5-yl)methyl)phosphoryl)bis(oxy))bis(ethane-2,1-diyl))dibutanethioate], for which the IC50 on pY641-STAT6 in PBMC (setting [1]) is 1000 to 3000 nM; at pY705-STAT3 in PBMC (Table 1114, read-out: pSTAT3), above 3000 nM.
On to `CC(C)(C)C(=O)OCOP(=O)(OCOC(=O)C(C)(C)C)C(F)(F)c1ccc2sc(C(=O)N[C@H]3CCCC[C@H]4CCC[C@@H](C(=O)N5CC(C(=O)N6CCOCC6)C5)N4C3=O)cc2c1` [Compound 172, (((difluoro(2-(((4S,7S,11aS)-4-(3-(morpholine-4-carbonyl)azetidine-1-carbonyl)-6-oxodecahydro-2H-pyrido[1,2-a]azocin-7-yl)carbamoyl)benzo[b]thiophen-5-yl)methyl)phosphoryl)bis(oxy))bis(methylene) bis(2,2-dimethylpropanoate)], for which the IC50 was 1000 to 3000 nM on pY641-STAT6 in PBMC (setting [1]) and below 100 nM on pY705-STAT3 in PBMC (Table 1114, read-out: pSTAT3).
With `CN(C(=O)[C@@H]1CC[C@@H]2C/C=C\C[C@H](NC(=O)c3cc4cc(C(F)(F)P(=O)(OCOC(=O)C(C)(C)C)OCOC(=O)C(C)(C)C)ccc4[nH]3)C(=O)N21)c1ccccc1` [Compound 141, (((difluoro(2-(((3S,6S,10aR,Z)-3-(methyl (phenyl)carbamoyl)-5-oxo-1,2,3,5,6,7,10,10a-octahydropyrrolo [1,2-a]azocin-6-yl)carbamoyl)-1H-indol-5-yl)methyl)phosphoryl)bis (oxy))bis (methylene) bis(2,2-dimethylpropanoate)], the IC50 at pY641-STAT6 in PBMC (setting [1]) fell in the range of 100 to 1000 nM; at pY705-STAT3 in PBMC (Table 1114, read-out: pSTAT3) it was 100 to 1000 nM.
Consider `CN(C(=O)[C@@H]1CC[C@@H]2CCCC[C@H](NC(=O)c3cc4cc(C(F)(F)P(=O)(OCOC(=O)C(C)(C)C)OCOC(=O)C(C)(C)C)ccc4[nH]3)C(=O)N21)c1ccccc1` [Compound 142, (((difluoro(2-(((3S,6S,10aS)-3-(methyl(phenyl)carbamoyl)-5-oxodecahydro-pyrrolo[1,2-a]azocin-6-yl)carbamoyl)-1H-indol-5-yl)methyl)phosphoryl)bis(oxy)) bis(methylene) bis(2,2-dimethylpropanoate)], for which the IC50 on pY641-STAT6 in PBMC (setting [1]) was below 100 nM; at pY705-STAT3 in PBMC (Table 1114, read-out: pSTAT3), 100 to 1000 nM.
Take `CCCOC(=O)[C@H](C)N[P@](=O)(Oc1ccccc1)[C@H](F)c1ccc2sc(C(=O)N[C@H]3CCC[C@H]4CC[C@@H](C(=O)N5CC(c6cnccc6N6CCOCC6)C5)N4C3=O)cc2c1` (single isomer, unassigned) [Compound 1045]: the IC50 against pY641-STAT6 in PBMC (STAT6, PBMC, Table 115) was above 3000 nM; on pY705-STAT3 in PBMC (Table 115, read-out: STAT3), below 100 nM.
For `CC(C)(C)C(=O)SCCOP(=O)(OCCSC(=O)C(C)(C)C)C(F)c1ccc2sc(C(=O)N[C@H]3CCC[C@H]4CC[C@@H](C(=O)N5CC(c6cnccc6F)C5)N4C3=O)cc2c1` (stereo partly drawn) [Compound 984, S,S′-((((fluoro(2-(((3S,6S,9aS)-3-(3-(4-fluoropyridin-3-yl)azetidine-1-carbonyl)-5-oxooctahydro-1H-pyrrolo[1,2-a]azepin-6-yl)carbamoyl)benzo [b]thiophen-5-yl)methyl)phosphoryl)bis(oxy))bis(ethane-2,1-diyl))bis(2,2-dimethyl-propanethioate)], the IC50 was above 3000 nM at pY641-STAT6 in PBMC (PBMC, Table 115, read-out: STAT6) and below 100 nM on pY705-STAT3 in PBMC (Table 115, read-out: STAT3).
Regarding `CC(C)(C)C(=O)OCOP(=O)(OCOC(=O)C(C)(C)C)[C@@H](F)c1ccc2sc(C(=O)N[C@H]3CCCC[C@H]4CC[C@@H](C(=O)N5C[C@@H](C#N)[C@H](c6ccccc6)C5)N4C3=O)cc2c1` (single isomer, unassigned) [Compound 183, ((((R)- or (S)-(2-(((3S,6S,10aS)-3-((3S,4R or 3R,4S)-3-cyano-4-phenylpyrrolidine-1-carbonyl)-5-oxodecahydropyrrolo[1,2-a]azocin-6-yl)carbamoyl)benzo[b]thiophen-5-yl)fluoromethyl)phosphoryl)bis(oxy))bis(methylene)bis(2,2-dimethylpropanoate))], the IC50 on pY641-STAT6 in PBMC (setting [1]) is below 100 nM; on pY705-STAT3 in PBMC (Table 1114, read-out: pSTAT3) it was 100 to 1000 nM.
